# Tests used:
# [1] = molecular target: BRD4 (Homo sapiens (Human), UniProt O60885); experiment: BRD4 DSF thermal shift (ΔTm); type: binding; conditions: for BRD4 DSF (ΔTm): Table 2; for DSF ΔTm: Table 1
# [2] = tested on: MM1.S cells; experiment: Antiproliferative activity, MM1.S cells; type: cell-based; conditions: Homo sapiens; for GI50: Table 2, read-out: GI50 (MM1S); for IC50: Table 1 comments
# Procedure: Cellular activity of promising compounds is assessed using MM.1S and MV4-11 AML cells using c-Myc levels as biomarker (6-12 hr treatment) and antiproliferative activity (48-72 hr treatment) as described (Ciceri et al., Dual kinase-bromodomain inhibitors for rationally designed polypharmacology. Nat Chem Biol 2014).
Structure (SMILES),BRD4 DSF (ΔTm) [1] [°C],GI50 [2] [nM],DSF ΔTm [1] [°C],IC50 [2] [nM]
"Cc1cnc(Nc2ccc(C3CCN(C)CC3)c(F)c2)cc1Nc1ccc2c(c1)N(S(=O)(=O)C(C)(C)C)CC2 [MA9-064, N4-(1-(Tert-butylsulfonyl)indolin-6-yl)-N2-(3-fluoro-4-(1-methylpiperidin-4-yl)phenyl)-5-methylpyridine-2,4-diamine]",8.2,1600,,
"Cc1cnc(Nc2ccc(C3=CCN(C)CC3)c(F)c2)nc1Nc1ccc(Cl)c(NS(=O)(=O)C(C)(C)C)c1 [PN1-101, N-(2-Chloro-5-((2-((3-fluoro-4-(1-methyl-1,2,3,6-tetrahydropyridin-4-yl)phenyl)amino)-5-methylpyrimidin-4-yl)amino)phenyl)-2-methylpropane-2-sulfonamide]",13.5,100,,
"Cc1cnc(Nc2cc(F)c(C3CCN(C)CC3)cc2F)nc1Nc1ccc(Cl)c(NS(=O)(=O)C(C)(C)C)c1 [PN1-102, N-(2-Chloro-5-((2-((2,5-difluoro-4-(1-methylpiperidin-4-yl)phenyl)amino)-5-methylpyrimidin-4-yl)amino)phenyl)-2-methylpropane-2-sulfonamide]",11.4,320,,
"CN1CCC(c2ccc(Nc3ncc(C(F)F)c(Nc4ccc(Cl)c(NS(=O)(=O)C(C)(C)C)c4)n3)cc2F)CC1 [PN1-117, N-(2-Chloro-5-((5-(difluoromethyl)-2-((3-fluoro-4-(1-methylpiperidin-4-yl)phenyl)amino)pyrimidin-4-yl)amino)phenyl)-2-methylpropane-2-sulfonamide]",12.7,240,,
"CN1CCC(c2ccc(Nc3ncc(I)c(Nc4ccc(Cl)c(NS(=O)(=O)C(C)(C)C)c4)n3)cc2F)CC1 [PN1-118, N-(2-Chloro-5-((2-((3-fluoro-4-(1-methylpiperidin-4-yl)phenyl)amino)-5-iodopyrimidin-4-yl)amino)phenyl)-2-methylpropane-2-sulfonamide]",11.6,210,,
"CN1CCC(c2ccc(Nc3ncc([N+](=O)[O-])c(Nc4ccc(Cl)c(NS(=O)(=O)C(C)(C)C)c4)n3)cc2F)CC1 [PN1-132, N-(2-Chloro-5-((2-((3-fluoro-4-(1-methylpiperidin-4-yl)phenyl)amino)-5-nitropyrimidin-4-yl)amino)phenyl)-2-methylpropane-2-sulfonamide]",12.8,360,,
"CN1CCC(c2ccc(Nc3ncc(C(N)=O)c(Nc4ccc(Cl)c(NS(=O)(=O)C(C)(C)C)c4)n3)cc2F)CC1 [PN1-134, 4-((4-Chloro-3-((1,1-dimethylethyl)sulfonamido)phenyl)amino)-2-((3-fluoro-4-(1-methylpiperidin-4-yl)phenyl)amino)pyrimidine-5-carboxamide]",13.7,580,,
"CN1CCC(c2ccc(Nc3ncc(C#N)c(Nc4ccc(Cl)c(NS(=O)(=O)C(C)(C)C)c4)n3)cc2F)CC1 [PN1-138, N-(2-Chloro-5-((5-cyano-2-((3-fluoro-4-(1-methylpiperidin-4-yl)phenyl)amino)pyrimidin-4-yl)amino)phenyl)-2-methylpropane-2-sulfonamide]",7.6,890,,
"CN1CCC(c2ccc(Nc3ncc(N)c(Nc4ccc(Cl)c(NS(=O)(=O)C(C)(C)C)c4)n3)cc2F)CC1 [PN1-140, N-(5-((5-Amino-2-((3-fluoro-4-(1-methylpiperidin-4-yl)phenyl)amino)pyrimidin-4-yl)amino)-2-chlorophenyl)-2-methylpropane-2-sulfonamide]",9.5,1800,,
"CN1CCC(c2ccc(Nc3ncc(-c4cnn(C)c4)c(Nc4ccc(Cl)c(NS(=O)(=O)C(C)(C)C)c4)n3)cc2F)CC1 [PN1-145, N-(2-Chloro-5-((2-((3-fluoro-4-(1-methylpiperidin-4-yl)phenyl)amino)-5-(1-methyl-1H-pyrazol-4-yl)pyrimidin-4-yl)amino)phenyl)-2-methylpropane-2-sulfonamide]",7.1,220,,
"Cc1cnc(Nc2ccc(C3CCN(C)CC3)c(F)n2)nc1Nc1ccc(Cl)c(NS(=O)(=O)C(C)(C)C)c1 [PN2-102, N-(2-Chloro-5-((2-((6-fluoro-5-(1-methylpiperidin-4-yl)pyridin-2-yl)amino)-5-methylpyrimidin-4-yl)amino)phenyl)-2-methylpropane-2-sulfonamide]",13.0,109,,
"Cc1cnc(Nc2ccc(C3CCN(C)CC3)c(F)n2)nc1Nc1ccc(F)c(NS(=O)(=O)C(C)(C)C)c1 [PN2-116, N-(2-Fluoro-5-((2-((6-fluoro-5-(1-methylpiperidin-4-yl)pyridin-2-yl)amino)-5-methylpyrimidin-4-yl)amino)phenyl)-2-methylpropane-2-sulfonamide]",12.1,104,,
"Cc1cnc(Nc2ccc(C3CCN(C)CC3)c(F)n2)nc1Nc1cccc(NS(=O)(=O)C(C)(C)C)c1 [PN2-117, N-(3-((2-((6-Fluoro-5-(1-methylpiperidin-4-yl)pyridin-2-yl)amino)-5-methylpyrimidin-4-yl)amino)phenyl)-2-methylpropane-2-sulfonamide]",11.0,153,,
"Cc1cnc(Nc2ccc(C3CCN(C)CC3)c(F)c2)nc1Nc1ccc(F)c(NS(=O)(=O)C(C)(C)C)c1 [PN2-118, N-(2-Fluoro-5-((2-((3-fluoro-4-(1-methylpiperidin-4-yl)phenyl)amino)-5-methylpyrimidin-4-yl)amino)phenyl)-2-methylpropane-2-sulfonamide]",13.0,83,,
"Cc1cnc(Nc2cc(F)c(C3CCN(C)CC3)c(F)c2)nc1Nc1ccc(Cl)c(NS(=O)(=O)C(C)(C)C)c1 [PN2-122, N-(2-Chloro-5-((2-((3,5-difluoro-4-(1-methylpiperidin-4-yl)phenyl)amino)-5-methylpyrimidin-4-yl)amino)phenyl)-2-methylpropane-2-sulfonamide]",15.2,93,,
"Cc1cnc(Nc2cc(F)c(C3CCN(C)CC3)c(F)c2)nc1Nc1ccc(F)c(NS(=O)(=O)C(C)(C)C)c1 [PN2-123, N-(5-((2-((3,5-Difluoro-4-(1-methylpiperidin-4-yl)phenyl)amino)-5-methylpyrimidin-4-yl)amino)-2-fluorophenyl)-2-methylpropane-2-sulfonamide]",14.7,81,,
"Cc1cnc(Nc2cc(F)c(C3CCN(C)CC3)c(F)c2)nc1Nc1cccc(NS(=O)(=O)C(C)(C)C)c1 [PN2-124, N-(3-((2-((3,5-Difluoro-4-(1-methylpiperidin-4-yl)phenyl)amino)-5-methylpyrimidin-4-yl)amino)phenyl)-2-methylpropane-2-sulfonamide]",13.4,80,,
"Cc1cnc(Nc2ccc(C3CCN(C)CC3)c(F)c2)cc1Nc1cccc(NS(=O)(=O)C(C)(C)C)c1 [SY3-039, N-(3-((2-((3-Fluoro-4-(1-methylpiperidin-4-yl)phenyl)amino)-5-methylpyridin-4-yl)amino)phenyl)-2-methylpropane-2-sulfonamide]",6.7,1600,,
Cc1cnc(Nc2cc(F)cc(N3CCN(C)CC3)c2)nc1Nc1ccc(Cl)c(NS(=O)(=O)C(C)(C)C)c1 [drawing 10],,,11.1,160
Cc1cnc(Nc2cc(F)cc(N3CCN(C)CC3)c2)nc1Nc1cccc(NS(=O)(=O)C(C)(C)C)c1 [drawing 14],,,11.1,220

# Source: patent US12391676B2 (H. LEE MOFFITT CANCER CENTER AND RESEARCH INSTITUTE, INC., priority 2018, dated 2025)
